# Test results taken from patent US20170226552A1, “METHODS FOR MODULATING PROTEIN GLY[…] OF R[…] THERAPEUTICS USING COBALT” (AbbVie Inc., priority 2014, published 2017).
# Legend:
# Assay type in all cases: cell-based, Chinese Hamster
# [1] = test system: Cell Line 1 (CHO cell line expressing Antibody 1); assay: Cell Line 1 shake flask fedbatch culture: viable cell density and cell viability (trypan blue exclusion)
# Procedure: (§1) Two recombinant Chinese Hamster Ovary (CHO) cell lines expressing two different recombinant glycoproteins were evaluated in 2 different culture vessels (shaker flasks and 3 L laboratory scale bioreactors). Cell Line 1 expressed humanized Antibody 1, and Cell Line 2 expressed Dual Variable Domain Immunoglobulin 1 (DVD1). Antibody 1 was an IgG1 glycoprotein, and DVD1 was an immunoglobulin glycoprotein with two variable domains as documented previously (Wu C. et al., (2007) Nat Biotechnol 25(11):1290-7).
# (§2) Both cells lines were of CHO DUX-B11 origin based on a dhfr (dihydrofolate reductase) expression system. All cultures utilized the same chemically defined basal media (CDBM), and chemically-defined feed media (CDFM), except Cell Linel utilized a CDFM that was enriched at a 50% higher relative concentration. Each of the experimental conditions were supplemented with cobalt chloride (Sigma-Aldrich, St. Louis, Mo.) to evaluate its potential impact on the resulting N-glycan oligosaccharide profile. In preparation of the cultures, the cell lines were expanded through separate seed train inoculums to generate enough cell biomass for inoculation of multiple cultures. Process conditions utilized during the cultures were similar between each experimental condition and the respective non-cobalt supplemented control condition (Table 1).
# (§3) Viable cell density (VCD) and cell viability values were measured through trypan blue exclusion via Cedex automated cell counters (Roche Applied Science, Indianapolis, Ind.), glucose and lactate values were measured with a ABL-805 (Radiometer Medical, Denmark) blood gas analyzer. Offline pH, dissolved oxygen (DO), and pCO2 measurements were also performed with a ABL-805 (Radiometer Medical, Denmark) blood gas analyzer. Osmolality was measured on a Multi-Osmette 2430 osmometer (Precision Systems, Natick, Mass.).
# [2] = test system: Cell Line 1 (CHO cell line expressing Antibody 1); assay: Cell Line 1 shake flask fedbatch culture: harvest titer of Antibody 1 (Poros A HPLC)
# Procedure: as §1, §2
# (§4) Antibody titers were measured from crude cell culture harvests on a Poros A™ (Life Technologies, Carlsbad, Calif.) affinity column using an HPLC system operating with a low pH, step elution gradient with detection at 280 nm. Absolute concentrations were assigned with respect to reference standard calibration curves.
# [3] = test system: Cell Line 1 (CHO cell line expressing Antibody 1); assay: Cell Line 1 shake flask fedbatch culture: N-glycan oligosaccharide profile of Antibody 1
# Procedure: as §1
# as §2, with “1). […]” for “1).”
# (§5) Approximately 200 μg of Protein A purified samples from Cell Lines 1 and 2 were treated with N-glycanase at 37° C. for an overnight duration to remove the N-glycans from the protein. […] Following the derivatization step, the excess dye was removed using clean up cartridges and the samples were analyzed using normal phase HPLC with fluorescent detection. […] The labeled glycans were detected using a fluorescence detector with an excitation wavelength of 330 nm and an emission wavelength of 420 nm.
# [4] = test system: Cell Line 2 (CHO cell line expressing DVD1); assay: Cell Line 2 shake flask fedbatch culture: viable cell density and cell viability (trypan blue exclusion)
# Procedure: as §1, §2, §3
# [5] = test system: Cell Line 2 (CHO cell line expressing DVD1); assay: Cell Line 2 shake flask fedbatch culture: harvest titer of DVD 1 (Poros A HPLC)
# Procedure: as §1, §2, §4
# [6] = test system: Cell Line 2 (CHO cell line expressing DVD1); assay: Cell Line 2 shake flask fedbatch culture: N-glycan oligosaccharide profile of DVD1
# Procedure: as §1, §2
# Purified antibodies subjected to additional analytical characterization were purified using MabSelect™ Protein A (GE Healthcare, Piscataway, N.J.) using a low pH, step elution gradient, followed by buffer exchange using Spin Concentrator X UF columns (Corning Lifesciences, Tewksbury, Mass.), or equivalent, according to the manufacturer's recommended procedure.
# Approximately 200 μg of Protein A purified samples from Cell Lines 1 and 2 were treated with N-glycanase at 37° C. for an overnight duration to remove the N-glycans from the protein. The protein was precipitated and the supernatant was taken for subsequent chemical derivatization of the reducing end of the released glycans with 2-aminobenzamide (2-AB) dye. Following the derivatization step, the excess dye was removed using clean up cartridges and the samples were analyzed using normal phase HPLC with fluorescent detection. Mobile phase A was 100% acetonitrile and mobile phase B was 50 mM ammonium formate at pH 4.4. The glycans were eluted from a polyamide column (Prozyme, Hayward, Calif.) using a shallow gradient. The labeled glycans were detected using a fluorescence detector with an excitation wavelength of 330 nm and an emission wavelength of 420 nm.
# [7] = test system: Cell Line 1 (CHO cell line expressing Antibody 1); assay: Cell Line 1 3 L laboratory-scale bioreactor culture: cell culture performance (VCD, viability, glucose, lactate, osmolality); conditions: Cell Line 1, 3 L bioreactor, 50 μM CoCl2
# Procedure: as §1, §2, §3
# 3 L scale-down model bioreactors were utilized to verify the impact of CoCl2 on the resulting protein glycosylation profiles in Cell Line 1. Cell culture process performance indicators were monitored and measured throughout the respective cultures. Viable cell density, cell viability, harvest titer, and harvest N-glycan oligosaccharide data was measured and reported. FIG. 4 highlights the cell culture performance results observed through the use of 50 μM CoCl2 targeted supplementation into the CDBM and CDFM. Similar to the shake flask results, there was a modest drop in the viable cell density profile (FIG. 4A), but no change in the viability profile in the 50 μM CoCl2 supplemented culture (FIG. 4B). […] Similar to the shake flask results using 50 μM CoCl2, there was a nominal drop in the final harvest titer with the cobalt supplemented culture achieving a final harvest titer 10% below that of the unsupplemented control (FIG. 4F).
# [8] = test system: Cell Line 1 (CHO cell line expressing Antibody 1); assay: Cell Line 1 3 L laboratory-scale bioreactor culture: harvest titer of Antibody 1; conditions: Cell Line 1, 3 L bioreactor, 50 μM CoCl2
# Procedure: as §1
# (§6) Both cells lines were of CHO DUX-B11 origin based on a dhfr (dihydrofolate reductase) expression system. […]
# Antibody titers were measured from crude cell culture harvests on a Poros A™ (Life Technologies, Carlsbad, Calif.) affinity column using an HPLC system operating with a low pH, step elution gradient with detection at 280 nm. […]
# 3 L scale-down model bioreactors were utilized to verify the impact of CoCl2 on the resulting protein glycosylation profiles in Cell Line 1. Cell culture process performance indicators were monitored and measured throughout the respective cultures. Viable cell density, cell viability, harvest titer, and harvest N-glycan oligosaccharide data was measured and reported. […]
# [9] = test system: Cell Line 1 (CHO cell line expressing Antibody 1); assay: Cell Line 1 3 L laboratory-scale bioreactor culture: N-glycan oligosaccharide profile of Antibody 1
# Procedure: as §1, §6, §5
# 3 L scale-down model bioreactors were utilized to verify the impact of CoCl2 on the resulting protein glycosylation profiles in Cell Line 1. Cell culture process performance indicators were monitored and measured throughout the respective cultures. […]
# [10] = Cell Line 2, shake flask, 100 μM cobalt
# [11] = Cell Line 2, shake flask, 1-100 μM CoCl2
smiles,measurement,setting,value
"[Cl-].[Cl-].[Co+2] [CoCl2, cobalt (II) chloride]",concentration up to which there was a negligible impact on cell growth,[1]; Cell Line 1,50 µM
same,peak VCD compared to the control,"[1]; Cell Line 1, shake flask, 1, 5, and 25 μM",approximately similar
same,peak VCD,"[1]; Cell Line 1, shake flask, cobalt 50 μM in CDBM and CDFM",approximately 9.4×10^6 cells/mL
same,peak VCD,"[1]; Cell Line 1, shake flask, cobalt 100 μM in CDBM and CDFM",~7.0×10^6 cells/mL
same,cell viability at harvest compared to the unsupplemented control,"[1]; Cell Line 1, shake flask, each cobalt concentration evaluated (1-100 μM), harvest Day 14",slightly higher cell viability
same,concentration up to which there was a negligible impact on recombinant protein productivity,[2]; Cell Line 1,50 µM
same,drop in productivity (harvest titer of Antibody 1) vs control,"[2]; Cell Line 1, shake flask, 100 μM cobalt",21%
same,impact on recombinant antibody productivity (harvest titer of Antibody 1),"[2]; Cell Line 1, shake flask, 1, 5, 25, and 50 μM cobalt",negligible impact
same,change in relative abundance of NGA2F-GlcNAc vs unsupplemented control,[3]; 1-100 μM CoCl2,statistically significant decreases
same,change in NA2F species vs unsupplemented control,"[3]; 1-100 μM CoCl2, much lower relative amount than NA1F",increased
same,change in NA1F species vs unsupplemented control,"[3]; concentration-dependent, 1-100 μM CoCl2",increase
same,concentration up to which there was a negligible impact on cell growth,[4]; Cell Line 2,25 µM
same,peak VCD compared to the control,"[4]; Cell Line 2, shake flask, 1, 5, and 25 μM",approximately similar
same,peak VCD,"[4]; Cell Line 2, shake flask, cobalt 50 μM in CDBM and CDFM",approximately 10.6×10^6 cells/mL
same,peak VCD,"[4]; Cell Line 2, shake flask, cobalt 100 μM in CDBM and CDFM",~6.7×10^6 cells/mL
same,cell viability over time and at harvest,"[4]; Cell Line 2, shake flask, higher cobalt media concentrations, after Day 6",higher cell viability
same,concentration up to which there was a negligible impact on recombinant protein productivity,[5]; Cell Line 2,5 µM
same,decrease in productivity (harvest titer of DVD 1) vs control,"[5]; Cell Line 2, shake flask, 25 μM cobalt",20%
same,decrease in productivity (harvest titer of DVD 1) vs control,"[5]; Cell Line 2, shake flask, 50 μM cobalt",35%
same,decrease in productivity (harvest titer of DVD 1) vs control,[5]; [10],47%
same,impact on recombinant antibody productivity (harvest titer of DVD 1),"[5]; Cell Line 2, shake flask, 1 and 5 μM cobalt",negligible impact
same,increase in NA1F glycans vs unsupplemented control,[6]; [10],6.2%
same,change in relative abundance of NGA2F-GlcNAc vs unsupplemented control,[6]; [11],statistically significant decreases
same,change in relative abundance of high mannose glycans vs unsupplemented control,[6]; [11],statistically significant decreases
same,change in NA2F species vs unsupplemented control,"[6]; Cell Line 2, shake flask, 1-100 μM CoCl2, much lower relative amount than NA1F",increased
same,maximum absolute percentage increase in galactosylated N-glycans relative to the unsupplemented control,"[6]; Cell Line 2, shaker flask cultures",6%
same,glucose levels in the culture media vs unsupplemented control over time,[7],approximately similar
same,higher lactate concentration in culture media vs unsupplemented control,[7],≤ 0.5 g/L
same,osmolality levels vs unsupplemented control,[7],slightly elevated
same,viability profile vs unsupplemented control,[7],no change
same,viable cell density profile vs unsupplemented control,[7],modest drop
same,final harvest titer below that of the unsupplemented control,[8],10%
same,increase in NA1F species vs unsupplemented control,"[9]; Cell Line 1, 3 L bioreactor, 50 μM CoCl2",approximately 8%
same,maximum absolute percentage increase in galactosylated N-glycans relative to the unsupplemented control,"[9]; Cell Line 1, 3 L scale bioreactors",8%
